# Values of other authors as cited in patent US20050170064A1, “Plant sterol-containing food, and method for preparing the same” (Eugene Science Inc., priority 2002, published 2005).
# Test system: LDL-C level
# Details: applied form in an oil phase (margarine)
substance,measurement,value
sitostanol fatty acid ester,Reduction of the LDL-C level,≤ 16%
